Legend:
G1 APOL1 = biological target: T1, G1 APOL1 (Homo sapiens, UniProt O14791, I384M/S342G); assay: Acute APOL1 Thallium Assay with Inducible Stable Clones of HEK 293 Cells; format: cell-based; conditions: HEK 293 inducible stable clones, G1 APOL1; read-out: Thallium Assay (IC50)
T1 construct: expressed in transfected cells
T1 sequence (O14791 28-398 S342G/I384M): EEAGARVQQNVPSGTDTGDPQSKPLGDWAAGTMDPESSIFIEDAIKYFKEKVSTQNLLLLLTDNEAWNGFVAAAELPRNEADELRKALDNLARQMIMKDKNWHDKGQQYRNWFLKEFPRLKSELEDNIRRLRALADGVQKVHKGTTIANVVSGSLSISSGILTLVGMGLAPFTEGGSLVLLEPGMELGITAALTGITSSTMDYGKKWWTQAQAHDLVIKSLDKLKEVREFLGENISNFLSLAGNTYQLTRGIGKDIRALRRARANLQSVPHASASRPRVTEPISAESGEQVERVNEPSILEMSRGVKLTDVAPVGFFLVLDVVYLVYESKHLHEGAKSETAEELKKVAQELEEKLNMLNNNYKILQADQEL
Summary of the method: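 HEK293 T-Rex cells with a stable tetracycline-inducible G1 APOL1 construct (clone DC3.25) were induced with tetracycline at plating, 26000 cells per well, then incubated at 37° C. They were loaded with an AM-ester thallium-sensitive dye and stimulated with Tl+. The fluorescence rise measured Tl+ influx through APOL1 pores.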

APOL1 G1 Protein = biological target: T2, APOL1 G1 Protein (Homo sapiens, UniProt O14791, I384M/S342G); assay: Trypanosoma brucei brucei Lysis Assay Using APOL1 Recombinant Protein (AlamarBlue viability); format: cell-based; conditions: read-out: Trypanosomal Assay (IC50)
T2 sequence (O14791 28-398 S342G/I384M): T1 sequence (O14791 28-398 S342G/I384M)
Summary of the method: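 Lister 427 bloodstream-form trypanosomes seeded at 120,000 per well in phenol-red-free, serum-free medium and lysed with recombinant APOL1 variant protein. Viability read by AlamarBlue (resazurin) fluorescence. Percent viability relative to untreated wells, interpolated from a standard curve of seeded parasites.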

| Structure (SMILES) | IC50 (G1 APOL1) | IC50 (APOL1 G1 Protein) |
| --- | --- | --- |
| CC(C)(CO)NC(=O)CCc1c(-c2ccc(F)cc2)[nH]c2ccc(F)cc12 [Compound 19] | 250 to 1000 nM | 250 to 1000 nM |
| O=C(CCc1c(-c2ccc(F)cc2)[nH]c2ccc(F)cc12)N[C@@H]1CCC[C@@H]1O [Compound 15] | 250 to 1000 nM | 250 to 1000 nM |
| NCC1CCCCN1C(=O)CCc1c(-c2ccc(F)cc2)[nH]c2ccc(F)cc12 (stereo not drawn) [Compound 53] | > 1000 nM | > 1000 nM |
| O=C(CCc1c(-c2ccc(F)cc2)[nH]c2c(F)cc(F)cc12)NCc1ccc(Cl)s1 [Compound 130] | > 1000 nM | > 1000 nM |
| CC1(NC(=O)CCc2c(-c3ccc(F)cc3)[nH]c3ccc(F)cc23)COC1 [Compound 16] | > 1000 nM | 250 to 1000 nM |
| O=C(CCc1c(-c2ccc(F)cc2)[nH]c2c(F)cc(F)cc12)NCc1cnn(C2CC(F)(F)C2)c1 [Compound 176] | > 1000 nM | > 1000 nM |
| CC(C)(C)OC(=O)N[C@H]1C[C@H](NC(=O)CCc2c(-c3ccc(F)cc3)[nH]c3ccc(F)cc23)C1 [Compound 57] | > 1000 nM | > 1000 nM |
| O=C(CCc1c(-c2ccc(F)cc2)[nH]c2c(F)cc(Br)cc12)N[C@@H](CO)C(F)(F)F [Compound 229] | 250 to 1000 nM | < 250 nM |
| CC(CO)NC(=O)CCc1c(-c2ccc(F)cc2)[nH]c2ccc(F)cc12 (racemic) [Compound 9] | < 250 nM | < 250 nM |
| Cn1nnnc1NC(=O)CCc1c(-c2ccc(F)cc2)[nH]c2c(F)cc(F)cc12 [Compound 165] | > 1000 nM | > 1000 nM |
| CC(NC(=O)CCc1c(-c2ccc(F)cc2)[nH]c2c(F)cc(F)cc12)c1ccn(C)n1 (racemic) [Compound 133] | 250 to 1000 nM | > 1000 nM |
| O=C(CCc1c(-c2ccc(F)cc2)[nH]c2c(F)cc(F)cc12)NC1C(=O)Nc2ccc(F)cc21 (stereo not drawn) [Compound 139] | > 1000 nM | > 1000 nM |
| NC1CCCN(C(=O)CCc2c(-c3ccc(F)cc3)[nH]c3ccc(F)cc23)C1 (stereo not drawn) [Compound 56] | > 1000 nM | > 1000 nM |
| N[C@H]1C[C@@H](NC(=O)CCc2c(-c3ccc(F)cc3)[nH]c3ccc(F)cc23)C1 [Compound 10] | > 1000 nM | > 1000 nM |
| C[C@@H](CO)NC(=O)CCc1c(-c2ccc(F)cc2)[nH]c2c(F)cc(F)cc12 [Compound 109] | 250 to 1000 nM | 250 to 1000 nM |
| O=C(CCc1c(-c2ccc(F)cc2)[nH]c2c(F)cc(F)cc12)NC1(C(F)(F)F)CC1 [Compound 129] | > 1000 nM | > 1000 nM |
| O=C(CCc1c(-c2ccc(F)cc2)[nH]c2ccc(F)cc12)N[C@H]1C[C@@H](O)C1 [Compound 87] | > 1000 nM | > 1000 nM |
| O=C(CCc1c(-c2ccc(F)cc2)[nH]c2ccc(F)cc12)N1CCC(O)C1 (stereo not drawn) [Compound 42] | > 1000 nM | > 1000 nM |
| O=C(CCc1c(-c2ccc(F)cc2)[nH]c2ccc(F)cc12)N[C@H]1CC[C@H]1O [Compound 14] | 250 to 1000 nM | 250 to 1000 nM |
| O=C(CCc1c(-c2ccc(F)cc2)[nH]c2c(F)cc(F)cc12)N[C@H]1CCOC1=O [Compound 187] | < 250 nM | < 250 nM |
| O=C(CCc1c(-c2ccc(F)cc2)[nH]c2ccc(F)cc12)NC1(c2ccccc2)CC1 [Compound 65] | > 1000 nM | > 1000 nM |
| O=C(CCc1c(-c2ccc(F)cc2)[nH]c2c(F)cc(F)cc12)Nc1ncco1 [Compound 162] | > 1000 nM | > 1000 nM |
| O=C(CCc1c(-c2ccc(F)cc2)[nH]c2c(F)cc(F)cc12)NC1(C(F)(F)F)CCC1 [Compound 161] | > 1000 nM | > 1000 nM |
| CC1CC(NC(=O)CCc2c(-c3ccc(F)cc3)[nH]c3c(F)cc(F)cc23)C(=O)O1 (mixture of isomers) [Compound 189] | > 1000 nM | > 1000 nM |
| NC(=O)[C@H](CO)NC(=O)CCc1c(-c2ccc(F)cc2)[nH]c2c(F)cc(F)cc12 [Compound 123] | > 1000 nM | > 1000 nM |
| O=C(CCc1c(-c2ccc(F)cc2)[nH]c2c(F)cc(F)cc12)Nc1nccs1 [Compound 167] | > 1000 nM | > 1000 nM |
| C[C@@H](CO)NC(=O)CCc1c(-c2ccc(F)cc2)[nH]c2ccc(F)cc12 [Compound 31] | > 1000 nM | 250 to 1000 nM |
| O=C(CCc1c(-c2ccc(F)cc2)[nH]c2c(F)cc(F)cc12)NC1(CO)COC1 [Compound 126] | 250 to 1000 nM | 250 to 1000 nM |
| CCNC(=O)C(C)NC(=O)CCc1c(-c2ccc(F)cc2)[nH]c2ccc(F)cc12 (racemic) [Compound 12] | 250 to 1000 nM | 250 to 1000 nM |
| CC(=O)NCCSc1c(-c2ccc(F)cc2)[nH]c2c(F)cc(F)cc12 [Compound 509, N-[2-[[5,7-difluoro-2-(4-fluorophenyl)-1H-indol-3-yl]sulfanyl]ethyl]acetamide] | < 250 nM | < 250 nM |

Source: patent US20230014907A1, “INHIBITORS OF APOL1 AND METHODS OF USING SAME” (Vertex Pharmaceuticals Incorporated, priority 2020, published 2023)
